Experimental data from US20170252327A1, “Methods of Modulating Gastrointestinal Tract Flora Levels with Alkaline Phosphatase” (priority 2008, published 2017).

Legend:
gut microbiota [1] = test: Restoration of gut flora after ampicillin treatment with or without cIAP (stool culture in LB media); assay type: in vivo, mice (C57BL/6)
Experimental: An experiment was performed in which five mice (C57BL/6) of each test group, approximately 6 weeks old, were treated with 1 mg/ml of the antimicrobial drug ampicillin, in the presence or absence of calf intestinal alkaline phosphatase (cIAP) (New England Biolabs, Ipswich, Mass.). Ampicillin was administered orally with the animal's drinking water at a concentration of 1 mg/ml, and 250 units of cIAP were administered twice daily as oral gavage. Individual stool samples of each group were cultured in LB media each day and analyzed for the presence/absence of the gut flora. The gut flora of mice before receiving the antibiotic was considered as a baseline control for normal gastrointestinal tract flora (present in all samples). […] Both treatment groups received ampicillin for 10 days.

[2] = test system: Gram-negative bacteria (mostly E. coli); test: Restoration of commensal Gram-negative gut flora in streptomycin-treated WT mice with or without cIAP (MacConkey agar); assay type: in vivo; conditions: streptomycin 5 mg/ml in drinking water
Experimental: Accordingly, experiments were performed in which groups of WT mice (n=10) were treated orally with the antibiotic streptomycin in the presence or absence of cIAP. Streptomycin (5 mg/ml) and cIAP (200 U/ml for cIAP^+ Group, n=5) or ‘vehicle for cIAP’ (20 μl/ml ‘vehicle for cIAP’ (50 mM KCl, 10 mM Tris-HCl (pH 8.2), 1 mM MgCl, 0.1 mM ZnCl2, and 50% glycerol) in drinking water for control cIAP^− Group, n=5) were administered in the animals' drinking water and fecal cultures were performed.
Individual stool samples were cultured each day on MacConkey agar media. […] After discontinuation of antibiotic treatment, the time of appearance (Day) of Gram-negative bacteria (mostly E. coli, occasionally P. mirabilis) in stool samples was recorded for each animal. The experiment was repeated six times, which raised the total number of animals in each group to 39 (n=39), however, duration of each experiment varied (7-35 days). Data was compiled from all six experiments and the number of animals with E. coli in each group on a specific day was recorded.

gut microbiota [3] = test: Restoration of gut flora after streptomycin treatment with or without cIAP (stool culture in LB media); assay type: in vivo, mice (C57BL/6)
Experimental: To address the role of intestinal alkaline phosphatase on the gastrointestinal tract flora of mammals, an experiment was performed in which five approximately six week old mice (C57BL/6) of each test group were treated with an antimicrobial drug, streptomycin, in the presence or absence of calf intestinal alkaline phosphatase (cIAP) (Sigma, St. Louis, Mo.). Both streptomycin (5 mg/ml) and cIAP (50 units/ml) were administered orally with the animal's drinking water. Individual stool samples of each group were cultured in LB media each day and analyzed for the presence/absence of gut flora. The gastrointestinal tract flora of mice before antibiotic treatment was considered as a baseline control for the normal gut flora (present in all samples).

IAP = test: Stool IAP activity in PTU-treated mice given T3 (hyperthyroid); assay type: in vivo
From the text: In WT mice, IAP (Akp3 isoform) is expressed at postnatal Day 15 (Narisawa et al., Am J Physiol Gastrointest Liver Physiol, 293:G1068, 2007), while IAP-KO mice lack this enzyme for their entire life. However, a variety of pathophysiological conditions can lead to altered IAP expression in adult WT animals, which may affect their intestinal flora. Accordingly, stool samples of hypothyroid and hyperthyroid mice were examined, since IAP is known to be silenced in hypothyroid animals and dramatically over-expressed in hyperthyroid animals (Hodin et al., Surgery, 120:138, 1996; Malo et al., Mol Endocrinol, 18:1941, 2004). For 32 weeks, groups of mice (n=5) were given water containing 0.05% propylthiouracil (PTU) in order to induce hypothyroidism by inhibiting both thyroid hormone biosynthesis and peripheral T4 deiodination (Cooper et al., Biochem Pharmacol, 33:3391, 1984). After 6 weeks of PTU treatment, one group received a daily i.p. injection of T3 (30 μg per 100 gm body weight, hyperthyroid) and the other group received a daily i.p. injection of normal saline (0.9% NaCl, hypothyroid) for 26 weeks (Hodin et al., Surgery, 120:138, 1996).
IAP activity was determined following the protocol as described by Baykov et al. (Anal Biochem, 171:266, 1988). Briefly, individual stool samples were homogenized in water (10 mg/100 μl), centrifuged and supernatant was collected. Then 25 μl of the stool supernatant (or aqueous cIAP solution) were mixed with 175 μl phosphatase assay reagent containing 5 mM of p-nitrophenyl phosphate (pNPP) followed by determining optical density at 405 nm after a specific time period when the samples usually turned yellow due to release of p-nitrophenol. Protein concentrations of stool supernatants were measured using a kit from Bio-Rad Laboratories (Hercules, Calif.). The specific activity of the enzyme, expressed as pmole pNPP hydrolyzed per minute per μg of protein, and CFU per gm of stool +/− SEM were determined and the results are shown in FIG. 3. […]

SMILES: CC1(C)S[C@@H]2[C@H](NC(=O)[C@H](N)c3ccccc3)C(=O)N2[C@H]1C(=O)O [Ampicillin alone, ampicillin]
- Bacteria in the stool (gut microbiota [1]; Day 1): Present
- Bacteria in the stool (gut microbiota [1]; Day 2): Absent
- Bacteria in the stool (gut microbiota [1]; Day 3): Absent
- Bacteria in the stool (gut microbiota [1]; Day 4): Absent
- Bacteria in the stool (gut microbiota [1]; Day 5): Absent
- Bacteria in the stool (gut microbiota [1]; Day 6): Absent
- Bacteria in the stool (gut microbiota [1]; Day 7): Absent
- Bacteria in the stool (gut microbiota [1]; Day 8): Absent
- Bacteria in the stool (gut microbiota [1]; Day 9): Absent
- Bacteria in the stool (gut microbiota [1]; Day 10): Absent
- Bacteria in the stool (gut microbiota [1]; Day 11): Absent
- Bacteria in the stool (gut microbiota [1]; Day 12): Absent
- Bacteria in the stool (gut microbiota [1]; Day 13): Absent
- Bacteria in the stool (gut microbiota [1]; Day 14): Absent
- Bacteria in the stool (gut microbiota [1]; Day 15): Absent
- Bacteria in the stool (gut microbiota [1]; Day 16): Absent
- Bacteria in the stool (gut microbiota [1]; Day 17): Absent
- Bacteria in the stool (gut microbiota [1]; Day 18): Absent
- Bacteria in the stool (gut microbiota [1]; Day 19): Absent
- Bacteria in the stool (gut microbiota [1]; Day 20): Absent
- Bacteria in the stool (gut microbiota [1]; Day 21): Absent
- Bacteria in the stool (gut microbiota [1]; Day 22): Absent
- Bacteria in the stool (gut microbiota [1]; Day 23): Absent
- Bacteria in the stool (gut microbiota [1]; Day 24): Present
- Day at which stools showed normal gut flora (gut microbiota [1]; ampicillin for 10 days): 24 days
- No bacterial growth in stools until (gut microbiota [1]; ampicillin for 10 days): 23 days

SMILES: [H]/N=C(/N)N[C@H]1[C@H](O)[C@@H](O)[C@H](O[C@@H]2O[C@@H](C)[C@](O)(C=O)[C@H]2O[C@@H]2O[C@@H](CO)[C@H](O)[C@@H](O)[C@@H]2NC)[C@@H](N/C(N)=N\[H])[C@@H]1O [Streptomycin alone, streptomycin]
- Time to elimination of aerobic Gram-negative organisms in all animals [2]: ≤ 24 h
- Bacterial growth in stools (gut microbiota [3]; 24 hours after discontinuation of streptomycin): no bacterial growth
- Bacteria in the stool (gut microbiota [3]; Day 1): Absent
- Bacteria in the stool (gut microbiota [3]; Day 2): Absent
- Bacteria in the stool (gut microbiota [3]; Day 3): Absent
- Bacteria in the stool (gut microbiota [3]; Day 4): Absent
- Bacteria in the stool (gut microbiota [3]; Day 5): Absent
- Bacteria in the stool (gut microbiota [3]; Day 6): Absent
- Bacteria in the stool (gut microbiota [3]; Day 7): Absent
- Bacteria in the stool (gut microbiota [3]; Day 8): Absent
- Bacteria in the stool (gut microbiota [3]; Day 9): Absent
- Bacteria in the stool (gut microbiota [3]; Day 10): Present
- Time stools remained sterile (gut microbiota [3]; after streptomycin for 24 hours): up to nine
- Day at which stools showed signs of the normal gastrointestinal tract flora (gut microbiota [3]; streptomycin for 24 hours): 10 days

SMILES: N[C@@H](Cc1cc(I)c(Oc2ccc(O)c(I)c2)c(I)c1)C(=O)O [T3]
- Stool IAP activity, higher compared to euthyroid animals (IAP; Week 32, hyperthyroid animals): approximately 7 fold
- Stool IAP activity, higher compared to hypothyroid animals (IAP; Week 32, hyperthyroid animals): ~15 fold
- IAP activity in stools (IAP; Weeks 12-32, daily i.p. T3): increased IAP activity
